The values that follow come from ChEMBL document CHEMBL3612000, “Synthesis, leishmanicidal, trypanocidal and cytotoxic activity of quinoline-hydrazone hybrids” (Eur J Med Chem, 2015).

pIC50: −log10 of the molar value. Converted amounts (≈) assume the structure as drawn.

Data set [1] deals with Leishmania panamensis. The data set is described as follows: Leishmanicidal activity against intracellular amastigotes of Leishmania (Viannia) panamensis MHOM/CO/87/UA140pIR-GFP infected in human U937 cells assessed as decrease of intracellular parasite load at 10 ug/ml after 72 hrs. The class given is functional.
Data set [2] concerns Trypanosoma cruzi. The data set is described as follows: Trypanocidal activity against intracellular amastigotes of Trypanosoma cruzi Tulahuen infected in human U937 cells assessed as reduction of viability of intracellular amastigotes by measuring beta-galactosidase activity at 20 ug/ml after 72 hrs by spectrophotometry analysis. In kind it is functional. Conditions: U-937, 72 h.

Data set [3] in a line: (§1) Cytotoxicity against human U937 cells assessed as cell viability after 72 hrs by MTT assay. Conditions: U937 cells, read-out: LC50. In kind it is cell-based, U-937.
For data set [4], the system named is Leishmania panamensis. The data set is described as follows: Leishmanicidal activity against intracellular amastigotes of Leishmania (Viannia) panamensis MHOM/CO/87/UA140pIR-GFP infected in human U937 cells assessed as decrease of intracellular parasite load at 20 ug/ml after 72 hrs. In kind it is functional. The settings on record: U-937, 72 h.
The nature of data set [5]: Selectivity index, ratio of LC50 for human U937 cells to EC50 for intracellular amastigotes of Leishmania (Viannia) panamensis MHOM/CO/87/UA140pIR-GFP. In kind it is toxicity, cell-based, U-937.
In data set [6] the test system is Leishmania panamensis. The data set is described as follows: Leishmanicidal activity against intracellular amastigotes of Leishmania (Viannia) panamensis MHOM/CO/87/UA140pIR-GFP infected in human U937 cells assessed as decrease of intracellular parasite load after 72 hrs. In kind it is functional, organism-based, U-937.
Data set [7] relates to Trypanosoma cruzi. The data set is described as follows: Trypanocidal activity against intracellular amastigotes of Trypanosoma cruzi Tulahuen infected in human U937 cells assessed as reduction of viability of intracellular amastigotes by measuring beta-galactosidase activity after 72 hrs by spectrophotometry analysis. The settings on record: U-937, 72 h. The class given is functional, organism-based.

Data set [8] in a line: Selectivity index, ratio of LC50 for human U937 cells to EC50 for intracellular amastigotes of Trypanosoma cruzi Tulahuen. In kind it is toxicity, cell-based, U-937.
Data set [9] deals with Trypanosoma cruzi. The data set is described as follows: Trypanocidal activity against intracellular amastigotes of Trypanosoma cruzi Tulahuen infected in human U937 cells assessed as reduction of viability of intracellular amastigotes by measuring beta-galactosidase activity at 5 ug/ml after 72 hrs by spectrophotometry analysis. The class given is functional. The settings on record: U-937, 72 h.

Another data set concerns U-937. The description is as §1. In kind it is cell-based. Conditions: u-937, 72 h, read-out: LC50 (the source's name).
For data set [10], the system named is Trypanosoma cruzi. The data set is described as follows: Trypanocidal activity against intracellular amastigotes of Trypanosoma cruzi Tulahuen infected in human U937 cells assessed as reduction of viability of intracellular amastigotes by measuring beta-galactosidase activity at 10 ug/ml after 72 hrs by spectrophotometry analysis. Conditions: U-937, 72 h. In kind it is functional.

The test system of another data set is Leishmania major. The data set is described as follows: Antileishmanial activity against Leishmania major. In kind it is functional, organism-based.
For data set [11], the system named is Leishmania panamensis. The data set is described as follows: Leishmanicidal activity against intracellular amastigotes of Leishmania (Viannia) panamensis MHOM/CO/87/UA140pIR-GFP infected in human U937 cells assessed as decrease of intracellular parasite load at 5 ug/ml after 72 hrs. In kind it is functional. Conditions: U-937, 72 h.
Data set [12] has as its system Leishmania panamensis. The data set is described as follows: Leishmanicidal activity against intracellular amastigotes of Leishmania (Viannia) panamensis MHOM/CO/87/UA140pIR-GFP infected in human U937 cells assessed as decrease of intracellular parasite load at 0.05 ug/ml after 72 hrs. The class given is functional. The settings on record: U-937, 72 h.
Data set [13] has as its system Leishmania panamensis. The data set is described as follows: Leishmanicidal activity against intracellular amastigotes of Leishmania (Viannia) panamensis MHOM/CO/87/UA140pIR-GFP infected in human U937 cells assessed as decrease of intracellular parasite load at 1 ug/ml after 72 hrs. Conditions: U-937, 72 h. The class given is functional.
The mark [14] stands for this setting: Leishmania panamensis, MHOM/CO/87/UA140pIR-GFP, U-937, 72 h, read-out: EC50.

For `O=C(N/N=C/c1cccc(O)c1O)c1ccnc2ccccc12`, the inhibition at 10 µg/mL in the data set on Leishmania panamensis [1] (U-937, 72 h) turned out to be 47.4%. The inhibition at 20 µg/mL with Trypanosoma cruzi [2] was 27.4%. In addition, in data set [3], the CC50 at 72 h stood at 47.5 µM.
Regarding `O=C(N/N=C/c1cc(O)ccc1O)c1ccnc2ccccc12`, the inhibition at 20 µg/mL in the data set with Leishmania panamensis [4] was determined as 26.1%; in the data set with Trypanosoma cruzi [2] it was 20.7%. The CC50 at 72 h in data set [3] was greater than 651 µM.
Regarding `O=C(N/N=C/c1ccc(O)c(O)c1O)c1ccc2ccccc2n1`, the selectivity ratio in data set [5] was found to be 4.6. For the same molecule, the EC50 in the data set with Leishmania panamensis [6] (setting [14]) was found to be 15.4 µg/mL (≈ 47.6 µM). Also, the inhibition at 20 µg/mL in the data set with Leishmania panamensis [4] turned out to be 68.2%; in the data set with Trypanosoma cruzi [2], 36.1%. Moreover, in data set [3], the CC50 at 72 h is 221 µM.
Turning to `O=C(N/N=C/c1cc(O)ccc1O)c1ccc2ccccc2n1`, the selectivity ratio in [5] turned out to be 2.8. Further, the EC50 with Leishmania panamensis [6] (setting [14]) was found to be 37.2 µg/mL (≈ 121 µM). The values for the inhibition at 20 µg/mL with Leishmania panamensis [4] and with Trypanosoma cruzi [2] were 64% and 24%, respectively. Moreover, the CC50 at 72 h in data set [3] came out at 159 µM.
Turning to `O=C(N/N=C/c1ccccc1O)c1ccc2ccccc2n1`, the EC50 in the data set with Trypanosoma cruzi [7] amounted to 1.4 µg/mL (≈ 4.81 µM). For the same molecule, the inhibition at 20 µg/mL with Leishmania panamensis [4] came out at 16.8%. Also, the selectivity ratio in data set [8] amounted to 11.6. Also, in the data set with Trypanosoma cruzi [9], the inhibition at 5 µg/mL was determined as 50.4%. The CC50 at 72 h in data set [3] was found to be 56 µM.
As for `O=C(Cn1ccnc1[N+](=O)[O-])NCc1ccccc1` [BENZNIDAZOLE], the EC50 with Trypanosoma cruzi [7] was determined as 10.5 µg/mL (≈ 40.3 µM). In addition, the selectivity ratio in [8] worked out at 17. Also, the inhibition at 20 µg/mL in the data set on Trypanosoma cruzi [2] is 87.6%.
Regarding `O=C(N/N=C/c1cccc(O)c1O)c1ccc2ccccc2n1`, the selectivity ratio in data set [5] stood at 4.7. The EC50 with Leishmania panamensis [6] (setting [14]) was found to be 6.5 µg/mL (≈ 21.2 µM). Besides, the results for the inhibition at 20 µg/mL in the data set with Leishmania panamensis [4] and in the data set with Trypanosoma cruzi [2] were 75.7% and 31%, respectively. Further, the CC50 at 72 h in data set [3] was determined as 99.6 µM.
With “MEGLUMINE ANTIMONATE [listing 1 of 2 here]”, in data set [5] (u-937), the Ratio came to 78.6. Moreover, the EC50 in the data set on Leishmania panamensis [6] (u-937) turned out to be 6.3 µg/mL. For the same molecule, the CC50 in the data set on U-937 came out at 6 µM.
As for `O=C(N/N=C/c1ccc(O)c(O)c1O)c1ccnc2ccccc12`, the values for the inhibition at 20 µg/mL in the data set with Leishmania panamensis [4] and with Trypanosoma cruzi [2] were 21.3% and 15.7%, respectively. Also, the CC50 at 72 h in [3] is 347 µM.
With “MEGLUMINE ANTIMONATE [listing 2 of 2 here]”, the inhibition in the data set on Leishmania panamensis [1] (U-937) came out at 79.4%.
Turning to `O=C(N/N=C/c1ccc(O)cc1O)c1ccnc2ccccc12`, the inhibition at 10 µg/mL with Trypanosoma cruzi [10] was determined as 27.7%. In addition, the EC50 in the data set on Trypanosoma cruzi [7] is 20.8 µg/mL (≈ 67.7 µM). Further, in data set [8], the selectivity ratio is 0.5. In [3], the CC50 at 72 h is 34.5 µM.
Take `CCN(CC)NC(=O)c1ccc(OCc2ccccc2)cc1`: in the data set with Leishmania major, the pIC50 is 4.68.
With `O=C(N/N=C/c1ccc(O)cc1O)c1nccc2ccccc12`, in [5], the selectivity ratio came out at 2.6. The inhibition at 5 µg/mL with Leishmania panamensis [11] is 62.6%. For the same molecule, in the data set with Leishmania panamensis [6] (setting [14]), the EC50 was 3.4 µg/mL (≈ 11.1 µM). In [3], the CC50 at 72 h is 28.6 µM.
As to `C[C@@H]1[C@H](O)[C@@H](C)/C=C/C=C/C=C/C=C/C=C/C=C/C=C/[C@H](O[C@@H]2O[C@H](C)[C@@H](O)[C@H](N)[C@@H]2O)C[C@@H]2O[C@](O)(C[C@@H](O)C[C@@H](O)[C@H](O)CC[C@@H](O)C[C@@H](O)CC(=O)O[C@H]1C)C[C@H](O)[C@H]2C(=O)O` [AMPHOTERICIN B], in data set [5], the selectivity ratio amounted to 1050. In addition, the inhibition at 0.05 µg/mL in the data set with Leishmania panamensis [12] amounted to 76%. The CC50 at 72 h in data set [3] amounted to 45.6 µM.
On to `O=C(N/N=C/c1ccc(O)cc1O)c1ccc2ccccc2n1`, for which the selectivity ratio in data set [5] worked out at 4.5; in data set [8] it was 0.5. Also, the EC50 with Leishmania panamensis [6] (setting [14]) was 0.8 µg/mL (≈ 2.6 µM); with Trypanosoma cruzi [7] it was 6.6 µg/mL (≈ 21.5 µM). In addition, the inhibition at 1 µg/mL in the data set on Leishmania panamensis [13] came out at 64.7%. Besides, the inhibition at 5 µg/mL with Trypanosoma cruzi [9] was 41.5%. For the same molecule, the CC50 at 72 h in data set [3] worked out at 11.7 µM.
